According to patent publication US20240285513A1, “TOPICAL COMPOSITION AGAINST FINE LINES AND WRINKLES” (priority 2021, published 2024):
Several values for one entry are separate records, joined by “and”; a condition that tells them apart may be missing. Identical values can stand only once. Marks after values point to notes of the source that are not given here.

Key:
Settings in all cases: human
[1] = test system: muscle contraction in the glabella region; assay: In vivo clinical study (Example 6): electromyography (EMG) muscle response
[2] = test system: fine lines and wrinkles, glabella area; assay: Comparative in vivo clinical study (Example 7): clinical grading of fine lines and wrinkles
Source text: (§1) The purpose of the comparative in vivo clinical study was to evaluate the efficacy of a combination of the three extracts for muscle relaxation and wrinkle reduction over four weeks of twice-daily application on Experimental Group 1 participants using a micro-roller (n=33) versus application on Experimental Group 2 participants without using a micro-roller (n=30). The combination of the three extracts was placed in a dermatologically acceptable vehicle as the test product. The dermatologically acceptable vehicle was designed to test the efficacy of the combination of the three extracts when applied with a micro-roller versus application without a micro-roller. Study participants in Experimental Group 1 used a 1.0 mm microroller. Study participants applied the composition containing the three extracts between their eyebrows in the morning and the evening after cleansing their face with a personal cleanser. For Experimental Group 1, study participants used the micro-roller 3 times per week in the evenings by rolling the micro-roller back and forth 4 to 5 times between eyebrows changing directions with each pass. […] The amounts of each extract used in the dermatologically acceptable vehicle was Rosmarinus officinalis leaf extract at 1 wt. %, Lavendula stoechas extract at 2 wt. %, and Acmella oleracea extract at 2 wt. %. […]

[3] = test system: fine lines and wrinkles, glabella area; assay: In vivo clinical study (Example 6): clinical grading of fine lines and wrinkles
[4] = test system: muscle contraction in the glabella region; assay: Comparative in vivo clinical study (Example 7): EMG muscle response with or without micro-roller
Source text: as §1

## onabotulinumtoxinA [BoTox]
[1]
  % EMG Response (AUC): 58%* and 40%*
[2]
  % Clinical Improvement of Wrinkles: 31%* and 35%*
[3]
  % Clinical Improvement of Wrinkles: 31%* and 35%*
[4]
  % EMG Response (AUC): 58%* and 40%*
